The values that follow come from patent publication US12577206B2 (BRISTOL-MYERS SQUIBB COMPANY, priority 2020, dated 2026).

A value given as a limit tells only on which side of the number the result lay.

One experiment addresses T1, human FPR2 (Homo sapiens, UniProt P25090).
T1 sequence (P25090 1-351): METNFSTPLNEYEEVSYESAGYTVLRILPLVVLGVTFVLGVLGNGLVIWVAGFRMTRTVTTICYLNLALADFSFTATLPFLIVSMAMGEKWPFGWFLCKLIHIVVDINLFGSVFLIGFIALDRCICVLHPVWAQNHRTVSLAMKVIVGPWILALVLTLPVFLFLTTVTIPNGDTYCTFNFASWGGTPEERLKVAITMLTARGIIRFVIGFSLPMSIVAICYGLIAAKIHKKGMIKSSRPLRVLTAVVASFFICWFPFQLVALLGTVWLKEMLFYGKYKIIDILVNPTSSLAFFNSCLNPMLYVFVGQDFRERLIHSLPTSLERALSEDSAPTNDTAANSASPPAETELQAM
As to the kind of experiment: FPR2 cyclic adenosine monophosphate (cAMP) assay. The note with it: CHO cells overexpressing human FPR2; forskolin 5 μM; inhibition of cAMP production; HTRF; read-out: hFPR2 cAMP2 EC50. Type of experiment: cell-based. The method in brief:
(§1)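 CHO/hFPR1 4,000 cells/well, forskolin 10 μM final; CHO/hFPR2 2,000 cells/well, forskolin 5 μM final. IBMX 200 μM, DMSO 1%, DPBS + Ca/Mg + 0.1% BSA, 30 min rt. HTRF cAMP; 4-PL fit.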

For a further experiment, the target named is T2, human FPR1 (Homo sapiens, UniProt P21462).
T2 sequence (P21462 1-350): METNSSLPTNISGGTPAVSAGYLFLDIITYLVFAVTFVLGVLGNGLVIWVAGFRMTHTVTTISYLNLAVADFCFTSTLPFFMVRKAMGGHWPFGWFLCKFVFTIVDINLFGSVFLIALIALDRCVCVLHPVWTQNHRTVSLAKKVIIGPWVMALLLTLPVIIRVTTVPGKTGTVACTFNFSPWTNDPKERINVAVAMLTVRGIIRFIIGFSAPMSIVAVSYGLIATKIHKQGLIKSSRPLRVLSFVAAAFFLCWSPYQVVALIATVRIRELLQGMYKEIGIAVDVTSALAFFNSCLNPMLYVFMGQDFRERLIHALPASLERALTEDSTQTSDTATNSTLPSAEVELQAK
As to the kind of experiment: FPR1 cyclic adenosine monophosphate (cAMP) assay. In kind it is cell-based. The conditions noted are these: CHO cells overexpressing human FPR1; forskolin 10 μM; inhibition of cAMP production; HTRF; read-out: hFPR1 cAMP2 EC50. A digest of the protocol:
as §1

With `COc1cc(F)c(-c2c(NC(=O)c3ccc(OC(F)F)cc3)c(=O)n(-c3cccc(C#N)c3)n2C)c(F)c1` [Example 110, N-[2-(3-cyanophenyl)-5-(2,6-difluoro-4-methoxyphenyl)-1-methyl-3-oxo-2,3-dihydro-1H-pyrazol-4-yl]-4-(difluoromethoxy)benzamide], the results for the EC50 on human FPR2 and at human FPR1 were 9 nM and 37 nM, respectively.
With `COc1cc(F)c(-c2c(NC(=O)c3ccc(OC(F)F)cc3)c(=O)n(-c3nc(Cl)ccc3N(C)C)n2C)c(F)c1` [Example 209, N-{2-[6-chloro-3-(dimethylamino)pyridin-2-yl]-5-(2,6-difluoro-4-methoxyphenyl)-1-methyl-3-oxo-2,3-dihydro-1H-pyrazol-4-yl}-4-(difluoromethoxy)benzamide], the EC50 was 3 nM at human FPR2 and over 10000 nM at human FPR1.
The like results for `COc1cc(F)c(-c2c(NC(=O)c3ccc(OC(F)F)cc3)c(=O)n(-c3cc(C#N)ccc3C#N)n2C)c(F)c1` [Example 179, N-[2-(2,5-dicyanophenyl)-5-(2,6-difluoro-4-methoxyphenyl)-1-methyl-3-oxo-2,3-dihydro-1H-pyrazol-4-yl]-4-(difluoromethoxy)benzamide] were, in that order, 23 nM and 300 nM.
Regarding `COCCNc1ccc(C(F)(F)F)c(-n2c(=O)c(NC(=O)c3ccc(OC(F)F)cc3)c(-c3c(F)cc(OC)cc3F)n2C)n1` [Example 235, N-[5-(2,6-difluoro-4-methoxyphenyl)-2-{6-[(2-methoxyethyl)amino]-3-(trifluoromethyl)pyridin-2-yl}-1-methyl-3-oxo-2,3-dihydro-1H-pyrazol-4-yl]-4-(difluoromethoxy)benzamide], the concentration for a half-maximal effect (EC50) was 1 nM on human FPR2 and over 10000 nM at human FPR1.
Taken in the same sequence, the figures for `COc1cc(F)c(-c2c(NC(=O)c3ccc(OC(F)F)cc3)c(=O)n(-c3nc(NCC(=O)N(C)C)ccc3C(F)(F)F)n2C)c(F)c1` [Example 252, N-[5-(2,6-difluoro-4-methoxyphenyl)-2-(6-{[(dimethylcarbamoyl)methyl]-amino}-3-(trifluoromethyl)pyridin-2-yl)-1-methyl-3-oxo-2,3-dihydro-1H-pyrazol-4-yl]-4-(difluoromethoxy)benzamide] were 12 nM and over 10000 nM.
For `COc1cc(F)c(-c2c(NC(=O)c3ccc(OC(F)F)cc3)c(=O)n(-c3cc(F)cc(C(C)(C)O)c3)n2C)c(F)c1` [Example 148, N-[5-(2,6-difluoro-4-methoxyphenyl)-2-[3-fluoro-5-(2-hydroxypropan-2-yl)phenyl]-1-methyl-3-oxo-2,3-dihydro-1H-pyrazol-4-yl]-4-(difluoromethoxy)benzamide], the EC50 at human FPR2 was 4 nM; on human FPR1 it was 1500 nM.
`COc1cc(OCC2CCS(=O)(=O)CC2)nc(-n2c(=O)c(NC(=O)c3ccc(OC(F)F)cc3)c(-c3c(F)cc(OC)cc3F)n2C)c1` [Example 337, N-(5-(2,6-Difluoro-4-methoxyphenyl)-2-(6-((1,1-dioxidotetrahydro-2H-thiopyran-4-yl)methoxy)-4-methoxypyridin-2-yl)-1-methyl-3-oxo-2,3-dihydro-1H-pyrazol-4-yl)-4-(difluoromethoxy)benzamide]: the results for the EC50 on human FPR2 and on human FPR1 were 15 nM and over 10000 nM, respectively.
In the case of `COc1cc(F)c(-c2c(NC(=O)c3ccc(OC(F)F)cc3)c(=O)n(-c3cc(OCC4(C)COC4)cc(C)n3)n2C)c(F)c1` [Example 327, N-(5-(2,6-Difluoro-4-methoxyphenyl)-1-methyl-2-(6-methyl-4-((3-methyloxetan-3-yl)methoxy)pyridin-2-yl)-3-oxo-2,3-dihydro-1H-pyrazol-4-yl)-4-(difluoromethoxy)benzamide], the values for the concentration giving a half-maximal response (EC50) at human FPR2 and at human FPR1 were 23 nM and 59 nM, respectively.
Taken in the same sequence, the figures for `COc1cccc(-n2c(=O)c(NC(=O)c3ccc(OC(F)F)cc3)c(-c3c(F)cc(OC)cc3F)n2C)c1` [Example 112, N-[5-(2,6-difluoro-4-methoxyphenyl)-2-(3-methoxyphenyl)-1-methyl-3-oxo-2,3-dihydro-1H-pyrazol-4-yl]-4-(difluoromethoxy)benzamide] were 5 nM and 3 nM.
Taken in the same sequence, the figures for `COc1cc(N2CCOCC2)nc(-n2c(=O)c(NC(=O)c3ccc(OC(F)F)cc3)c(-c3c(F)cc(OC)cc3F)n2C)c1` [Example 364, N-(5-(2,6-Difluoro-4-methoxyphenyl)-2-(4-methoxy-6-morpholinopyridin-2-yl)-1-methyl-3-oxo-2,3-dihydro-1H-pyrazol-4-yl)-4-(difluoromethoxy)benzamide] were 62 nM and 2100 nM.
As to `CNc1ccc(C(F)(F)F)c(-n2c(=O)c(NC(=O)c3ccc(OC(F)F)cc3)c(-c3c(F)cc(OC)cc3F)n2C)n1` [Example 227, N-[5-(2,6-difluoro-4-methoxyphenyl)-1-methyl-2-[6-(methylamino)-3-(trifluoromethyl)pyridin-2-yl]-3-oxo-2,3-dihydro-1H-pyrazol-4-yl]-4-(difluoromethoxy)benzamide], the EC50 is 3 nM on human FPR2 and over 5000 nM on human FPR1.
Taken in the same sequence, the figures for `COc1cc(OC2CCOC2)nc(-n2c(=O)c(NC(=O)c3ccc(OC(F)F)cc3)c(-c3c(F)cc(OC)cc3F)n2C)c1` (centres unmarked) [Example 355, N-(5-(2,6-Difluoro-4-methoxyphenyl)-2-(4-methoxy-6-((tetrahydrofuran-3-yl)oxy)pyridin-2-yl)-1-methyl-3-oxo-2,3-dihydro-1H-pyrazol-4-yl)-4-(difluoromethoxy)benzamide] were 4 nM and over 10000 nM.
Take `COc1cc(F)c(-c2c(NC(=O)c3ccc(OC(F)F)cc3)c(=O)n(-c3cccc(CN(C)C)n3)n2C)c(F)c1` [Example 204, N-[5-(2,6-difluoro-4-methoxyphenyl)-2-{6-[(dimethylamino)methyl]pyridin-2-yl}-1-methyl-3-oxo-2,3-dihydro-1H-pyrazol-4-yl]-4-(difluoromethoxy)benzamide]: the EC50 on human FPR2 was 15 nM; at human FPR1, over 10000 nM.
Turning to `COc1cc(F)c(-c2c(NC(=O)c3ccc(OC(F)(F)F)cc3)c(=O)n(-c3ccccc3C#N)n2C)c(F)c1` [Example 174, N-[2-(2-cyanophenyl)-5-(2,6-difluoro-4-methoxyphenyl)-1-methyl-3-oxo-2,3-dihydro-1H-pyrazol-4-yl]-4-(trifluoromethoxy)benzamide], the EC50 was 7 nM at human FPR2 and over 10000 nM on human FPR1.
Taken in the same sequence, the figures for `COc1cc(F)c(-c2c(NC(=O)c3ccc(OC(F)F)cc3)c(=O)n(-c3nc(N4CC(O)C4)ccc3Cl)n2C)c(F)c1` [Example 300, N-{2-[3-chloro-6-(3-hydroxyazetidin-1-yl)pyridin-2-yl]-5-(2,6-difluoro-4-methoxyphenyl)-1-methyl-3-oxo-2,3-dihydro-1H-pyrazol-4-yl}-4-(difluoromethoxy)benzamide] were 7 nM and over 5000 nM.
For `COc1cc(F)c(-c2c(NC(=O)c3ccc(OC(F)F)cc3)c(=O)n(-c3nc(C(C)(C)O)ccc3Cl)n2C)c(F)c1` [Example 276, N-{2-[3-chloro-6-(2-hydroxypropan-2-yl)pyridin-2-yl]-5-(2,6-difluoro-4-methoxyphenyl)-1-methyl-3-oxo-2,3-dihydro-1H-pyrazol-4-yl}-4-(difluoromethoxy)benzamide], the EC50 on human FPR2 came out at 4 nM; at human FPR1, 2890 nM.
On to `CCc1ccc(N2CCN(C)CC2)nc1-n1c(=O)c(NC(=O)c2ccc(OC(F)F)cc2)c(-c2c(F)cc(OC)cc2F)n1C` [Example 244, N-[5-(2,6-difluoro-4-methoxyphenyl)-2-[3-ethyl-6-(4-methylpiperazin-1-yl)pyridin-2-yl]-1-methyl-3-oxo-2,3-dihydro-1H-pyrazol-4-yl]-4-(difluoromethoxy)benzamide], for which the EC50 at human FPR2 is 35 nM; at human FPR1, over 10000 nM.
Turning to `COc1cc(F)c(-c2c(NC(=O)c3ccc(OC(F)(F)F)cc3)c(=O)n(-c3cc(Cl)ccn3)n2C)c(F)c1` [Example 153, N-[2-(4-chloropyridin-2-yl)-5-(2,6-difluoro-4-methoxyphenyl)-1-methyl-3-oxo-2,3-dihydro-1H-pyrazol-4-yl]-4-(trifluoromethoxy)benzamide], the 50% effective concentration (EC50) at human FPR2 stood at 5 nM; on human FPR1, 4200 nM.
The like results for `COc1cc(F)c(-c2c(NC(=O)c3ccc(Cl)cc3)c(=O)n(-c3ccccc3)n2C)c(F)c1` [Example 9, 4-chloro-N-[5-(2,6-difluoro-4-methoxyphenyl)-1-methyl-3-oxo-2-phenyl-2,3-dihydro-1H-pyrazol-4-yl]benzamide] were, in that order, 11 nM and over 10000 nM.
